Measurements reported in patent US20100040703A1, “USE OF NITRIC OXIDE” (priority 2008, published 2010).

Tested on: Influenza A/Victoria/H3N2
Assay: Plaque assay on MDCK cells after exposure of virions to 160 ppm NO gas
Type: cell-based
Conditions: for plaques (infectious virus titre): 160 ppm gNO

Nitric oxide [NO-gas] was tested, and the “plaques (infectious virus titre)” value (exposure 0 mins) was 250 ± 14 pfu/ml, the “plaques (infectious virus titre)” value (exposure 60 mins) was 50 ± 11 pfu/ml and the “plaques (infectious virus titre)” value (exposure 120 mins) was 43 ± 10 pfu/ml. The “plaques (infectious virus titre)” value (exposure 180 mins) was 29 ± 14 pfu/ml and the “less transmissible into host cells than the control group” value (virions exposed to 160 ppm NO before incubation with host cells) was “at least 80%”.
